Results as given in patent publication US10231960B2, “Methylphenidate-prodrugs, processes of making and using the same” (KemPharm, Inc., priority 2011, dated 2019).
≈ marks a conversion by molar mass, not a printed value.

Legend:
[1] = Oral PK in rats: plasma methylphenidate released from conjugates vs unconjugated methylphenidate (LC-MS/MS); settings: oral gavage; for Tmax: Tmax (Methylphenidate)
From the text: Exemplary prodrug conjugates of the present technology were synthesized as described above. The oral plasma concentrations of methylphenidate released from nicotinate-CH2OCO-MPH, phosphate-CH2OCO-MPH, gallate-CH2OCO-MPH, lactate-CH2OCO-MPH, MPH-CO2CH2-nicotinoyl-Asp, MPH-CO2CH2-nicotinoyl-Val, MPH-CO2CH2-nicotinoyl-Gly-Ala, Val-6-aminohexanoate-CH2OCO-MPH, MPH-CO2CH2-nicotinamide, 6-aminohexanoate-CH2OCO-MPH, MPH-CO2CH2-nicotinoyl-O^tBu, MPH-CO2CH2-nicotinate, MPH-CO2CH2-nicotinoyl-OEL MPH-CO2CH2-pyridine, isonicotinate-CH2OCO-MPH and phosphate-(p-salicylate)-CH2OCO-MPH were compared with unconjugated methylphenidate after oral administration in rats. Rats were dosed with oral solutions of the conjugated prodrugs in an amount equivalent to 2 mg/kg of methylphenidate free base and compared to an equimolar solution of unconjugated methylphenidate hydrochloride.
The plasma concentrations of methylphenidate were measured by LC-MS/MS over time.
The dosing vehicles for the PK experiments are as follows: FIG. 13—10% Tween in water. FIGS. 14 and 15—water. FIG. 16—conjugate in 50% PEG-400 in water; control: water. FIG. 17—50% PEG-400 in water. FIG. 18—10% Tween in water. FIGS. 19-27—water. FIGS. 28 and 29—phosphate buffered saline (PBS). FIG. 30—10% Tween in water.

[2] = water, at 32° C.; cited from earlier work
[3] = Water solubility at ambient temperature; assay type: physicochemical
Method: The water solubility of phosphate-CH2OCO-methylphenidate and unconjugated methylphenidate was determined at ambient temperature and the results are found in Table 5.

[4] = Intravenous PK in rats: plasma methylphenidate released from conjugates vs unconjugated methylphenidate; assay type: in vivo; settings: rat, unconjugated methylphenidate comparator, dosed intravenously
From the text: (§1) FIGS. 14 and 15—water. […] FIG. 17—50% PEG-400 in water. FIG. 18—10% Tween in water. FIGS. 19-27—water. FIGS. 28 and 29—phosphate buffered saline (PBS). FIG. 30—10% Tween in water.

[5] = Intranasal PK in rats: plasma methylphenidate released from conjugates vs unconjugated methylphenidate; assay type: in vivo; settings: rat, inhaled or intranasal, unconjugated methylphenidate comparator, dosed intranasally
From the text: as §1

[6] = conjugate relative to unconjugated methylphenidate
[7] = plasma methylphenidate released from conjugate, equivalent to 2 mg/kg methylphenidate free base
[8] = read-out: AUC0-4 h (Methylphenidate)
[9] = conjugate relative to methylphenidate hydrochloride from combined data of six studies
[10] = calculated from combined data of three studies (footnote a)

**Q.** With `COC(=O)C(c1ccccc1)C1CCCCN1C(=O)OCOC(=O)CCCCCN` (centres unmarked) [6-Aminohexanoate-CH2OCO-MPH, (6-aminohexanoyloxy)methyl methylphenidate-1-carboxylate] as the compound, how does the AUC-% [1, 6] read?
**A.** 82%

**Q.** What about the Cmax-% [1, 6] of the same compound?
**A.** 109%

**Q.** And the Tmax-% [1, 6]?
**A.** 88%

**Q.** And the “AUC0-4 h (Conjugate)” value [1, 7]?
**A.** 145.6 ng·h/mL

**Q.** What about the “Cmax (Conjugate)” value [1, 7] of the same compound?
**A.** 173.5 ng/mL

**Q.** And the “Tmax (Conjugate)” value [1, 7]?
**A.** 21 min

**Q.** For `COC(=O)C(c1ccccc1)C1CCCCN1C(=O)OCOC(=O)C(C)O` (centres unmarked) [Lactate-CH2OCO-MPH, lactate-CH2OCO-MPH], which AUC-% [1, 6] is on record?
**A.** 73%

**Q.** What about the Cmax-% [1, 6] of the same compound?
**A.** 75%

**Q.** What about the Tmax-% [1, 6] of the same compound?
**A.** 120%

**Q.** And the “AUC0-4 h (Conjugate)” value [1, 7]?
**A.** 132.3 ng·h/mL

**Q.** And the “Cmax (Conjugate)” value [1, 7]?
**A.** 122.5 ng/mL

**Q.** And the “Tmax (Conjugate)” value [1, 7]?
**A.** 18 min

**Q.** For `COC(=O)C(c1ccccc1)C1CCCCN1` (centres unmarked) [Methylphenidate, methyl phenyl(piperidin-2-yl)acetate], which “Solubility data found in the literature” value [2] is on record?
**A.** 191 mg/mL (≈ 819 mM)

**Q.** What about the solubility ([3]; water) of the same compound?
**A.** 169 mg/mL (≈ 724 mM)

**Q.** And the AUC(0-t) ([1]; rat, plasma, po, 2 mg/kg, AUC0-4 h (Methylphenidate), methylphenidate hydrochloride, combined data of six studies (footnotes a, b))?
**A.** 106 ng·h/mL

**Q.** And the Cmax ([1]; rat, plasma, po, 2 mg/kg, Cmax (Methylphenidate), methylphenidate hydrochloride, combined data of six studies (footnotes a, b))?
**A.** 114 ng/mL

**Q.** And the Tmax ([1]; rat, plasma, po, 2 mg/kg, methylphenidate hydrochloride, combined data of six studies (footnotes a, b))?
**A.** 17 min

**Q.** And the Tmax ([1]; rat, plasma, po, 2 mg/kg, unconjugated methylphenidate hydrochloride comparator of the same row, equimolar)?
**A.** 15 min

**Q.** And the Cmax [4]?
**A.** 296 ng/mL

**Q.** And the Tmax [4]?
**A.** 31 min

**Q.** What about the AUC(0-t) [4, 8] of the same compound?
**A.** 320 ng·h/mL

**Q.** And the Cmax [5]?
**A.** 2210 ng/mL

**Q.** And the Tmax [5]?
**A.** 6.96 min

**Q.** And the AUC(0-t) [5, 8]?
**A.** 1050 ng·h/mL

**Q.** Which results are given for `COC(=O)C(c1ccccc1)C1CCCCN1C(=O)OCOP(=O)(O)O` (centres unmarked) [Phosphate-CH2OCO-MPH, phosphate-CH2OCO-MPH]?
**A.** Solubility in Water [3]: 432 mg/mL; Water solubility relative to the unconjugated form ([3]; vs unconjugated methylphenidate hydrochloride): about 2.5 times; AUC-% [1, 9]: 146%; Cmax-% [1, 9]: 140%; Tmax-% [1, 9]: 88%; AUC-% [1, 6]: 185%; Cmax-% [1, 6]: 144%; Tmax-% [1, 6]: 100%; AUC0-4 h (Conjugate) [1, 10]: 154.5 ng·h/mL; Cmax (Conjugate) [1, 10]: 158.9 ng/mL; Tmax (Conjugate) [1, 10]: 15 min; AUC0-4 h (Conjugate) [1, 7]: 110.8 ng·h/mL; Cmax (Conjugate) [1, 7]: 110.8 ng/mL; Tmax (Conjugate) [1, 7]: 15 min

**Q.** What does the source list for `COC(=O)C(c1ccccc1)C1CCCCN1C(=O)OCOC(=O)CCCCCNC(=O)C(N)C(C)C` (centres unmarked) [Val-6-aminohexanoate-CH2OCO-MPH]?
**A.** AUC-% [1, 6]: 58%; Cmax-% [1, 6]: 59%; Tmax-% [1, 6]: 83%; AUC0-4 h (Conjugate) [1, 7]: 44.9 ng·h/mL; Cmax (Conjugate) [1, 7]: 52.7 ng/mL; Tmax (Conjugate) [1, 7]: 15 min
